In PubChem BioAssay (NCI):
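Following 48 hours of exposure in 96-well plates, responses at five concentrations were used to interpolate endpoints linearly. TGI denotes the concentration required for complete inhibition of growth.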

Tests used:
Assay in all cases: NCI tumour cell line growth inhibition, 48 h
786-0 renal = system: 786-0 renal
A498 renal = system: A498 renal
A549 NSCLC = system: A549 NSCLC
ACHN renal = system: ACHN renal
CAKI-1 renal = system: CAKI-1 renal
CCRF-CEM leukemia = system: CCRF-CEM leukemia
COLO 205 colon = system: COLO 205 colon
DLD-1 colon = system: DLD-1 colon
DMS 114 small cell lung = system: DMS 114 small cell lung
DMS 273 small cell lung = system: DMS 273 small cell lung
EKVX NSCLC = system: EKVX NSCLC
HCC-2998 colon = system: HCC-2998 colon
HCT-116 colon = system: HCT-116 colon
HL-60(TB) leukemia = system: HL-60(TB) leukemia
HOP-18 NSCLC = system: HOP-18 NSCLC
HOP-62 NSCLC = system: HOP-62 NSCLC
HOP-92 NSCLC = system: HOP-92 NSCLC
IGROV1 ovarian = system: IGROV1 ovarian
K-562 leukemia = system: K-562 leukemia
KM12 colon = system: KM12 colon
KM20L2 colon = system: KM20L2 colon
LOX IMVI melanoma = system: LOX IMVI melanoma
LXFL 529 NSCLC = system: LXFL 529 NSCLC
M14 melanoma = system: M14 melanoma
M19-MEL melanoma = system: M19-MEL melanoma
MALME-3M melanoma = system: MALME-3M melanoma
MOLT-4 leukemia = system: MOLT-4 leukemia
NCI-H226 lung = system: NCI-H226 lung
NCI-H23 lung = system: NCI-H23 lung
NCI-H460 lung = system: NCI-H460 lung
NCI-H522 lung = system: NCI-H522 lung
OVCAR-3 ovarian = system: OVCAR-3 ovarian
OVCAR-4 ovarian = system: OVCAR-4 ovarian
OVCAR-5 ovarian = system: OVCAR-5 ovarian
OVCAR-8 ovarian = system: OVCAR-8 ovarian
RPMI-8226 leukemia = system: RPMI-8226 leukemia
RXF 393 renal = system: RXF 393 renal
RXF-631 renal = system: RXF-631 renal
SF-268 CNS = system: SF-268 CNS
SF-295 CNS = system: SF-295 CNS
SF-539 CNS = system: SF-539 CNS
SK-MEL-2 melanoma = system: SK-MEL-2 melanoma
SK-MEL-28 melanoma = system: SK-MEL-28 melanoma
SK-MEL-5 melanoma = system: SK-MEL-5 melanoma
SK-OV-3 ovarian = system: SK-OV-3 ovarian
SN12C renal = system: SN12C renal
SNB-19 CNS = system: SNB-19 CNS
SNB-75 CNS = system: SNB-75 CNS
SNB-78 CNS = system: SNB-78 CNS
SW-620 colon = system: SW-620 colon
TK-10 renal = system: TK-10 renal
U251 CNS = system: U251 CNS
UACC-257 melanoma = system: UACC-257 melanoma
UACC-62 melanoma = system: UACC-62 melanoma
UO-31 renal = system: UO-31 renal
XF 498 CNS = system: XF 498 CNS
HCT-15 colon = system: HCT-15 colon
HT29 colon = system: HT29 colon
SR leukemia = system: SR leukemia

In the case of `Cc1ccc(NC(=O)CC2Sc3ccccc3NC2=O)c(C)c1` (stereo unspecified), the TGI (786-0 renal) is reported as 26.5 µM, the TGI (A498 renal) is reported as 30.1 µM and the TGI (A549 NSCLC) is reported as 39.7 µM. The TGI (ACHN renal) was 41 µM, the TGI (CAKI-1 renal) was 63.3 µM and the TGI (CCRF-CEM leukemia) was 78.4 µM. For the same compound, the TGI (COLO 205 colon) was 38.7 µM, the TGI (DLD-1 colon) was 31 µM and the TGI (DMS 114 small cell lung) was 51.7 µM. The TGI (DMS 273 small cell lung) was 37.5 µM, the TGI (EKVX NSCLC) was over 100 µM and the TGI (HCC-2998 colon) was 27.3 µM. The TGI (HCT-116 colon) was 22 µM, the TGI (HL-60(TB) leukemia) was 8.35 µM and the TGI (HOP-18 NSCLC) was 30.2 µM. For the same compound, the TGI (HOP-62 NSCLC) was 34 µM, the TGI (HOP-92 NSCLC) was 39.5 µM and the TGI (IGROV1 ovarian) was over 100 µM. For the same compound, the TGI (K-562 leukemia) was 19 µM, the TGI (KM12 colon) was 20.1 µM and the TGI (KM20L2 colon) was 30.5 µM. For the same compound, the TGI (LOX IMVI melanoma) was over 100 µM, the TGI (LXFL 529 NSCLC) was 71.1 µM and the TGI (M14 melanoma) was 36.5 µM. For the same compound, the TGI (M19-MEL melanoma) was 48.2 µM, the TGI (MALME-3M melanoma) was 47.7 µM and the TGI (MOLT-4 leukemia) was 72.9 µM. The TGI (NCI-H226 lung) was 33.5 µM, the TGI (NCI-H23 lung) was 33.7 µM and the TGI (NCI-H460 lung) was 32.4 µM. It also gave a TGI (NCI-H522 lung) of 30.4 µM, a TGI (OVCAR-3 ovarian) of 28.6 µM and a TGI (OVCAR-4 ovarian) of 48.1 µM. It also gave a TGI (OVCAR-5 ovarian) of 73 µM, a TGI (OVCAR-8 ovarian) of 37.4 µM and a TGI (RPMI-8226 leukemia) of 43.9 µM. For the same compound, the TGI (RXF 393 renal) was 31 µM, the TGI (RXF-631 renal) was 33.1 µM and the TGI (SF-268 CNS) was 60.7 µM. The TGI (SF-295 CNS) was 40.2 µM, the TGI (SF-539 CNS) was 29.6 µM and the TGI (SK-MEL-2 melanoma) was 18.2 µM. For the same compound, the TGI (SK-MEL-28 melanoma) was 75.9 µM, the TGI (SK-MEL-5 melanoma) was 30.9 µM and the TGI (SK-OV-3 ovarian) was 33 µM. For the same compound, the TGI (SN12C renal) was over 100 µM, the TGI (SNB-19 CNS) was 30.3 µM and the TGI (SNB-75 CNS) was 19.2 µM. For the same compound, the TGI (SNB-78 CNS) was 63.2 µM, the TGI (SW-620 colon) was 56 µM and the TGI (TK-10 renal) was 50.9 µM. The TGI (U251 CNS) was 33.1 µM, the TGI (UACC-257 melanoma) was 39.7 µM and the TGI (UACC-62 melanoma) was 48.9 µM. It also gave a TGI (UO-31 renal) of 34.8 µM and a TGI (XF 498 CNS) of 37.5 µM.
With `Cc1cccc(C(C)(C)C)c1NC(=O)CC1C(=O)Nc2ccccc2S1(=O)=O` (stereo unspecified) the TGI (786-0 renal) was 21.5 µM, the TGI (A498 renal) was 28.4 µM and the TGI (A549 NSCLC) was 27.9 µM. It also gave a TGI (ACHN renal) of 22.7 µM, a TGI (CAKI-1 renal) of 31.3 µM and a TGI (CCRF-CEM leukemia) of 7.8 µM. The TGI (DLD-1 colon) was 18.3 µM, the TGI (DMS 273 small cell lung) was 14.9 µM and the TGI (EKVX NSCLC) was 14.5 µM. It also gave a TGI (HCC-2998 colon) of 20.5 µM, a TGI (HCT-116 colon) of 22.3 µM and a TGI (HCT-15 colon) of 16.3 µM. It also gave a TGI (HL-60(TB) leukemia) of 10.7 µM, a TGI (HOP-92 NSCLC) of 25.3 µM and a TGI (HT29 colon) of 16.3 µM. It also gave a TGI (IGROV1 ovarian) of 21.8 µM, a TGI (K-562 leukemia) of 13 µM and a TGI (KM20L2 colon) of 22.3 µM. It also gave a TGI (LOX IMVI melanoma) of 18.6 µM, a TGI (LXFL 529 NSCLC) of 24.5 µM and a TGI (M14 melanoma) of 27.8 µM. It also gave a TGI (M19-MEL melanoma) of 24.8 µM, a TGI (MALME-3M melanoma) of 25.4 µM and a TGI (MOLT-4 leukemia) of 5.19 µM. The TGI (NCI-H226 lung) was 32.8 µM, the TGI (NCI-H23 lung) was 18.9 µM and the TGI (NCI-H460 lung) was 24.1 µM. It also gave a TGI (OVCAR-3 ovarian) of 18.1 µM, a TGI (OVCAR-4 ovarian) of 25.5 µM and a TGI (OVCAR-5 ovarian) of 27 µM. The TGI (OVCAR-8 ovarian) was 22.4 µM, the TGI (RPMI-8226 leukemia) was 17.2 µM and the TGI (RXF 393 renal) was 29 µM. It also gave a TGI (SF-268 CNS) of 25.5 µM, a TGI (SF-295 CNS) of 20 µM and a TGI (SF-539 CNS) of 10.2 µM. For the same compound, the TGI (SK-MEL-2 melanoma) was 21.2 µM, the TGI (SK-MEL-28 melanoma) was 30.3 µM and the TGI (SK-MEL-5 melanoma) was 24.9 µM. The TGI (SN12C renal) was 25.7 µM, the TGI (SNB-19 CNS) was 29.2 µM and the TGI (SNB-75 CNS) was 30.4 µM. It also gave a TGI (SNB-78 CNS) of 22.1 µM, a TGI (SR leukemia) of 7.13 µM and a TGI (SW-620 colon) of 22.1 µM. The TGI (TK-10 renal) was 42 µM, the TGI (U251 CNS) was 20.2 µM and the TGI (UACC-257 melanoma) was over 100 µM. For the same compound, the TGI (UACC-62 melanoma) was 18.6 µM, the TGI (UO-31 renal) was 23.3 µM and the TGI (XF 498 CNS) was 23.1 µM.
`COC(=O)C(C(=O)OC)C1CCCC(=O)C1` (stereo unspecified) gave a TGI (786-0 renal) of over 100 µM, a TGI (A498 renal) of over 100 µM and a TGI (A549 NSCLC) of over 100 µM. The TGI (ACHN renal) was over 100 µM, the TGI (CCRF-CEM leukemia) was over 100 µM and the TGI (COLO 205 colon) was over 100 µM. The TGI (DLD-1 colon) was over 100 µM, the TGI (DMS 273 small cell lung) was over 100 µM and the TGI (EKVX NSCLC) was over 100 µM. For the same compound, the TGI (HCC-2998 colon) was over 100 µM, the TGI (HCT-116 colon) was over 100 µM and the TGI (HCT-15 colon) was over 100 µM. For the same compound, the TGI (HL-60(TB) leukemia) was over 100 µM, the TGI (HOP-18 NSCLC) was over 100 µM and the TGI (HOP-62 NSCLC) was over 100 µM. For the same compound, the TGI (HOP-92 NSCLC) was over 100 µM, the TGI (HT29 colon) was over 100 µM and the TGI (IGROV1 ovarian) was over 100 µM. The TGI (K-562 leukemia) was over 100 µM, the TGI (KM12 colon) was over 100 µM and the TGI (KM20L2 colon) was over 100 µM. For the same compound, the TGI (LOX IMVI melanoma) was over 100 µM, the TGI (LXFL 529 NSCLC) was over 100 µM and the TGI (M14 melanoma) was over 100 µM. The TGI (M19-MEL melanoma) was over 100 µM, the TGI (MALME-3M melanoma) was over 100 µM and the TGI (MOLT-4 leukemia) was over 100 µM. The TGI (NCI-H23 lung) was over 100 µM, the TGI (NCI-H460 lung) was over 100 µM and the TGI (OVCAR-3 ovarian) was over 100 µM. The TGI (OVCAR-4 ovarian) was over 100 µM, the TGI (OVCAR-5 ovarian) was over 100 µM and the TGI (OVCAR-8 ovarian) was over 100 µM. The TGI (RPMI-8226 leukemia) was over 100 µM, the TGI (RXF 393 renal) was over 100 µM and the TGI (SF-268 CNS) was over 100 µM. The TGI (SF-295 CNS) was over 100 µM, the TGI (SF-539 CNS) was over 100 µM and the TGI (SK-MEL-2 melanoma) was 0.503 µM. It also gave a TGI (SK-MEL-28 melanoma) of over 100 µM, a TGI (SK-MEL-5 melanoma) of over 100 µM and a TGI (SK-OV-3 ovarian) of over 100 µM. It also gave a TGI (SN12C renal) of over 100 µM, a TGI (SNB-19 CNS) of over 100 µM and a TGI (SNB-75 CNS) of over 100 µM. The TGI (SNB-78 CNS) was over 100 µM, the TGI (SR leukemia) was over 100 µM and the TGI (SW-620 colon) was over 100 µM. It also gave a TGI (TK-10 renal) of over 100 µM, a TGI (U251 CNS) of over 100 µM and a TGI (UACC-257 melanoma) of over 100 µM. It also gave a TGI (UACC-62 melanoma) of over 100 µM, a TGI (UO-31 renal) of over 100 µM and a TGI (XF 498 CNS) of over 100 µM.
